Data as given in patent US7651978B2, “Selective herbicides based on a substituted phenylsulphonylaminocarbonyl-triazolinone” (Arysta LifeScience North America, LLC, priority 1998, dated 2010).

Assays:
Alopecurus [1] = assay: Pre-emergence test/greenhouse; format: in vivo; conditions: 504 h, after three weeks, read-out: degree of damage, Alopecurus; for pest or weed control at 30 g/ha: 30 g of ai./ha
Method: (§1) Pre-Emergence Test/Greenhouse Solvent: 5 parts by weight of acetone Emulsifier: 1 part by weight of alkylaryl polyglycol ether To produce a suitable preparation of active compound, 1 part by weight of active compound is mixed with the stated amount of solvent, the stated amount of emulsifier is added and the concentrate is diluted with water to the desired concentration. Seeds of the test plants are sown in normal soil. After about 24 hours, the soil is sprayed with the preparation of active compound such that the particular amount of active compound desired is applied per unit area. The concentration of the spray liquor is chosen so that the particular amount of active compound desired is applied in 500 ml of water per hectare. After three weeks, the degree of damage to the plants is assessed in % damage in comparison to the development of the untreated control. The figures denote: • 0%=no effect (like untreated control) • 100%=total destruction

Avena [2] = assay: Pre-emergence test/greenhouse; format: in vivo; conditions: 504 h, after three weeks, read-out: degree of damage, Avena; for pest or weed control at 30 g/ha: 30 g of ai./ha
Method: as §1

Bromus [3] = assay: Pre-emergence test/greenhouse; format: in vivo; conditions: 30 g of ai./ha, after three weeks
Method: as §1

Digitaria = assay: Pre-emergence test/greenhouse; format: in vivo; conditions: 30 g of ai./ha, after three weeks
Method: as §1

Echinochloa = assay: Pre-emergence test/greenhouse; format: in vivo; conditions: 30 g of ai./ha, after three weeks
Method: as §1

Matricaria = assay: Pre-emergence test/greenhouse; format: in vivo; conditions: 30 g of ai./ha, after three weeks
Method: as §1

Polygonum = assay: Pre-emergence test/greenhouse; format: in vivo; conditions: 30 g of ai./ha, after three weeks
Method: as §1

Setaria [4] = assay: Pre-emergence test/greenhouse; format: in vivo; conditions: after three weeks
Method: as §1

Wheat [5] = assay: Pre-emergence test/greenhouse; format: in vivo; conditions: pre-emergence; for degree of damage, Wheat: 30 g of ai./ha, after three weeks, 0%=no effect, 100%=total destruction
Method: as §1

Agropyron = assay: Post-emergence test/greenhouse; format: in vivo; conditions: 60 g ai./ha, after three weeks
Method: (§2) Post-Emergence Test/Greenhouse [table] To produce a suitable preparation of active compound, 1 part by weight of active compound is mixed with the stated amount of solvent, the stated amount of emulsifier is added and the concentrate is diluted with water to the desired concentration. Test plants which have a height of 5-15 cm are sprayed with the preparation of active compound such that the particular amounts of active compound desired are applied per unit area. The concentration of the spray liquor is chosen so that the particular amounts of active compound desired are applied in 500 ml of water/ha. After three weeks, the degree of damage to the plants is assessed in % damage in comparison to the development of the untreated control. The figures denote: • 0%=no effect (like untreated control) • 100%=total destruction

Alopecurus [6] = assay: Post-emergence test/greenhouse; format: in vivo; conditions: 504 h, after three weeks, read-out: degree of damage, Alopecurus; for pest or weed control at 60 g/ha: 60 g ai./ha; for pest or weed control at 250 g/ha: 250 g ai./ha
Method: as §2

Avena [7] = assay: Post-emergence test/greenhouse; format: in vivo; conditions: after three weeks
Method: as §2

Bromus [8] = assay: Post-emergence test/greenhouse; format: in vivo; conditions: 60 g ai./ha, after three weeks
Method: as §2

Lolium = assay: Post-emergence test/greenhouse; format: in vivo; conditions: 60 g ai./ha, after three weeks
Method: as §2

Setaria [9] = assay: Post-emergence test/greenhouse; format: in vivo; conditions: after three weeks
Method: as §2

Wheat [10] = assay: Post-emergence test/greenhouse; format: in vivo; conditions: post-emergence, 60 g ai./ha, after three weeks; 0%=no effect, 100%=total destruction
Method: as §2

[11] = test system: weeds, such as Alopecurus, Avena, Bromus, Digitaria, Echinochloa, Matricaria, Polygonum and Setaria; assay: Pre-emergence test/greenhouse, summary over weeds; format: in vivo; conditions: cf. Table A1
Method: Pre-Emergence Test/Greenhouse Solvent: 5 parts by weight of acetone Emulsifier: 1 part by weight of alkylaryl polyglycol ether To produce a suitable preparation of active compound, 1 part by weight of active compound is mixed with the stated amount of solvent, the stated amount of emulsifier is added and the concentrate is diluted with water to the desired concentration. Seeds of the test plants are sown in normal soil. After about 24 hours, the soil is sprayed with the preparation of active compound such that the particular amount of active compound desired is applied per unit area. The concentration of the spray liquor is chosen so that the particular amount of active compound desired is applied in 500 ml of water per hectare. After three weeks, the degree of damage to the plants is assessed in % damage in comparison to the development of the untreated control. […] Table A1). The considerable superiority of (I)-Na-salt over the comparative compound (G) is shown in Table A2 [“ai.”=“active ingredient”].

[12] = test system: weeds, such as Agropyron, Alopecurus, Avena, Bromus, Lolium, Setaria and Veronica; assay: Post-emergence test/greenhouse, summary over weeds; format: in vivo; conditions: cf. Table B1
Method: as §2, with “[…] A considerable superiority of (I)-Na-salt (at 125 g/ha) over the comparative compounds (G) and (H) (in each case at 250 g/ha!) is shown in Table B2.” for “The figures denote: • 0%=no effect (like untreated control) • 100%=total destruction”

Veronica = assay: Post-emergence test/greenhouse; format: in vivo; conditions: 60 g ai./ha, after three weeks
Method: as §2

Avena fatua = assay: Post-emergence tests/outdoors (Example C, Canada); format: in vivo; conditions: outdoors, 30 g of a.i./ha + SAS (Canplus 411), 70 WP, 6 tests
Method: (§3) Post-Emergence Tests/Outdoors In addition to the comparative compounds (B) and (D), the sodium salt of the compound of the formula (I) was tested under outdoor conditions in the main cultivation areas of summer wheat in Canada against economically important weeds. The small-plot experiments were carried out on cultivated land under agricultural use. Areas with particularly extensive weed growth were chosen preferably. The active compounds were applied across the area by the spray method, with an average droplet size. To produce a useful preparation of active compound, the active compounds were formulated as 70 WP (70% w/w water-dispersible powder) and applied with customary amounts of water. Wetting of the plants was improved by addition of a surface-active substance (SAS) in the concentrations recommended by the respective manufacturer. To assess the crop compatibility, from 1 to 8 weeks after the treatment, plant growth inhibitions or […] of the leaf area were assessed in % damage in comparison to the development of the untreated control. At different intervals after the treatment, the herbicidal activity was assessed as % reduction in comparison to the untreated control, based on the weed development. The figures denote: • 0%=no damage of the crops or no herbicidal effect, • 100%=total destruction of the crops or the weeds.

Fallopia convolvulus = assay: Post-emergence tests/outdoors (Example C, Canada); format: in vivo; conditions: outdoors, 30 g of a.i./ha + SAS (Canplus 411), 70 WP, 5 tests
Method: as §3

Setaria viridis = assay: Post-emergence tests/outdoors (Example C, Canada); format: in vivo; conditions: outdoors, 30 g of a.i./ha + SAS (Canplus 411), 70 WP, 5 tests
Method: as §3

Sinapis arvensis = assay: Post-emergence tests/outdoors (Example C, Canada); format: in vivo; conditions: outdoors, 30 g of a.i./ha + SAS (Canplus 411), 70 WP, 5 tests
Method: as §3

Thlaspi arvense = assay: Post-emergence tests/outdoors (Example C, Canada); format: in vivo; conditions: outdoors, 30 g of a.i./ha + SAS (Canplus 411), 70 WP, 3 tests
Method: as §3

wheat [13] = assay: Post-emergence tests/outdoors (Example C, Canada), crop damage; format: in vivo, summer wheat; conditions: outdoors, 30 g of a.i./ha + SAS (Canplus 411), 70 WP, 9 tests, 1 to 8 weeks after treatment
Method: as §3

Row | SMILES | pest or weed control at 30 g/ha (Alopecurus [1]) [%] | pest or weed control at 30 g/ha (Avena [2]) [%] | degree of damage, Bromus (Bromus [3]) [%] | degree of damage, Digitaria (Digitaria) [%] | degree of damage, Echinochloa (Echinochloa) [%] | degree of damage, Matricaria (Matricaria) [%] | degree of damage, Polygonum (Polygonum) [%] | degree of damage, Setaria (Setaria [4]; 30 g of ai./ha) [%] | degree of damage, Wheat (Wheat [5]) [%] | degree of damage, Agropyron (Agropyron) [%] | pest or weed control at 60 g/ha (Alopecurus [6]) [%] | degree of damage, Avena (Avena [7]; 60 g ai./ha) [%] | degree of damage, Bromus (Bromus [8]) [%] | degree of damage, Lolium (Lolium) [%] | degree of damage, Setaria (Setaria [9]; 60 g ai./ha) [%] | degree of damage, Wheat (Wheat [10]) [%] | herbicidal activity (in words, compared with (I)-Na-salt) [11] | herbicidal activity (in words, compared with (I)-Na-salt) [12] | degree of damage, Veronica (Veronica) [%] | pest or weed control at 250 g/ha (Alopecurus [6]) [%] | also measured
1 | CCn1c(OC)nn(C(=O)NS(=O)(=O)c2ccccc2OC(F)(F)F)c1=O [(A), 2-(2-Trifluoromethoxy-phenylsulphonylaminocarbonyl)-4-ethyl-5-methoxy-2,4-dihydro-3H-1,2,4-triazol-3-one] | 20 | 0 | 40 | 0 | 50 | 0 | 0 | 60 | 0 | 0 | 0 | 0 | 40 | 0 | 40 | 0 | considerably weaker herbicidal activity | considerably weaker herbicidal activity |  |  | 
2 | CCOc1nn(C(=O)NS(=O)(=O)c2ccccc2OC(F)(F)F)c(=O)n1C [(B), 2-(2-Trifluoromethoxy-phenylsulphonylaminocarbonyl)-4-methyl-5-ethoxy-2,4-dihydro-3H-1,2,4-triazol-3-one] | 70 | 80 |  |  |  |  | 80 |  | 50 |  | 40 |  |  | 70 |  | 0 |  | considerably weaker herbicidal activity | 70 |  | compatibility with crop plants (wheat), in words (Wheat [5]; cf. Table A1): not compatible with wheat; herbicidal effect (%), Avena fatua (Avena fatua): 69%; herbicidal effect (%), Fallopia convolvulus (Fallopia convolvulus): 71%; herbicidal effect (%), Setaria viridis (Setaria viridis): 95%; herbicidal effect (%), Sinapis arvensis (Sinapis arvensis): 97%; herbicidal effect (%), Thlaspi arvense (Thlaspi arvense): 97%; Crop damage (wheat) (wheat [13]): 5%
3 | COn1c(C)nn(C(=O)NS(=O)(=O)c2ccccc2OC(F)(F)F)c1=O [(C), 2-(2-Trifluoromethoxy-phenylsulphonylaminocarbonyl)-4-methoxy-5-methyl-2,4-dihydro-3H-1,2,4-triazol-3-one] | 0 | 0 | 0 | 0 | 0 | 0 | 0 | 0 | 0 | 0 | 0 | 0 | 0 | 0 | 0 | 0 | considerably weaker herbicidal activity | considerably weaker herbicidal activity | 0 |  | 
4 | COc1nn(C(=O)NS(=O)(=O)c2ccccc2OC(F)F)c(=O)n1C [(E), 2-(2-Difluoromethoxy-phenylsulphonylaminocarbonyl)-4-methyl-5-methoxy-2,4-dihydro-3H-1,2,4-triazol-3-one] | 50 | 30 | 0 | 40 | 30 | 0 | 60 | 80 | 0 | 60 | 20 | 70 | 0 | 20 |  | 0 | considerably weaker herbicidal activity | considerably weaker herbicidal activity | 30 |  | 
5 | COc1nn(C(=O)NS(=O)(=O)c2ccccc2OC(F)(F)C(F)F)c(=O)n1C [(G), 2-[2-(1,1,2,2-Tetrafluoroethoxy)-phenylsulphonylaminocarbonyl]-4-methyl-5-methoxy-2,4-dihydro-3H-1,2,4-triazol-3-one] |  |  |  |  |  |  |  |  |  |  |  |  |  |  |  |  |  |  |  | 30 | pest or weed control at 250 g/ha (Alopecurus [1]; 250 g ai./ha): 50%; pest or weed control at 250 g/ha (Avena [2]; 250 g ai./ha): 0%; degree of damage, Setaria (Setaria [4]; 250 g ai./ha): 50%; degree of damage, Avena (Avena [7]; 250 g ai./ha): 0%; degree of damage, Setaria (Setaria [9]; 250 g ai./ha): 30%
6 | COc1nn(C(=O)NS(=O)(=O)c2ccccc2OC(F)(F)C(F)(F)F)c(=O)n1C [(H), 2-[2-(Pentafluoroethoxy)-phenylsulphonylaminocarbonyl]-4-methyl-5-methoxy-2,4-dihydro-3H-1,2,4-triazol-3-one] |  |  |  |  |  |  |  |  |  |  |  |  |  |  |  |  |  |  |  | 40 | degree of damage, Avena (Avena [7]; 250 g ai./ha): 80%; degree of damage, Setaria (Setaria [9]; 250 g ai./ha): 20%
